Measured values from patent publication US10709692B2, “Isoxazolidine derived inhibitors of receptor interacting protein kinase 1 (RIPK1)” (Denali Therapeutics Inc., priority 2015, dated 2020).
pIC50: −log10 of the molar value. Where “and” joins values, the source holds several entries; their conditions need not be identical. Equal values may be shown once.

Target: T1, receptor interacting protein kinase 1 (GST-hRIPK1 (8-327)) (Homo sapiens, UniProt Q13546)
T1 construct: GST-hRIPK1 (8-327) enzyme was generated by Proteros GmbH by Baculovirus expression system
T1 sequence (Q13546 8-327): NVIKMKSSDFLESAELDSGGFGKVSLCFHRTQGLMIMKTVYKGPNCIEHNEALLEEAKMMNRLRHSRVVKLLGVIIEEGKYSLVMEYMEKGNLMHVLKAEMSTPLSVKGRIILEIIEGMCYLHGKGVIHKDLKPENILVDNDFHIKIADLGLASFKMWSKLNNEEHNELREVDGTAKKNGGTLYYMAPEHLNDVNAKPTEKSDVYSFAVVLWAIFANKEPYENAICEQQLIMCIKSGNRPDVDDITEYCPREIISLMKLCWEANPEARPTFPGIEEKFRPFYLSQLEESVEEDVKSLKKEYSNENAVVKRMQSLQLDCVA
Assay: Fluorescent Polarization Binding (FP Binding) assay
Conditions: 10 nM GST-hRIPK1 (8-327), 5 nM fluorescent-labeled ligand, 30 min at RT
Summary of the method: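 Displacement of 5 nM fluorescent ligand from 10 nM GST-hRIPK1 (8-327), 30 min at room temperature in pH 7.5 HEPES buffer, 1% DMSO. Fluorescence polarization read (ex 531/em 595 nm); IC50 fitted from percent inhibition and averaged over at least two independent experiments.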

SMILES	pIC50
O=C(N1OCC[C@H]1c1ccc(F)nc1)C1(C(F)F)CCC1 [Compound 168, 5-[(3S)-2-[1-(difluoromethyl)cyclo-butanecarbonyl]-1,2-oxazolidin-3-yl]-2-fluoropyridine]	> 6.00
CC(C)(C(=O)N1OCC[C@H]1c1ccc(F)nc1)C(F)F [Compound 169, 3,3-difluoro-1-[(3S)-3-(6-fluoropyridin-3-yl)-1,2-oxazolidin-2-yl]-2,2-dimethylpropan-1-one]	> 6.00
O=C(N1OCC[C@H]1c1ccc(F)nc1)C1(C(F)F)CC1 [Compound 170, 5-[(3S)-2-[1-(difluoromethyl)cyclo-propanecarbonyl]-1,2-oxazolidin-3-yl]-2-fluoropyridine]	> 6.00
CC(C)(CC#N)C(=O)N1OCC[C@H]1c1ccc(F)cc1 [Compound 171, 4-[(3S)-3-(4-fluorophenyl)-1,2-oxazolidin-2-yl]-3,3-dimethyl-4-oxobutanenitrile]	> 6.00 and 7.96
N#CC1(C(=O)N2OCC[C@H]2c2ccc(F)cc2)CC2(COC2)C1 [Compound 172, 6-[(3S)-3-(4-fluorophenyl)-1,2-oxazolidine-2-carbonyl]-2-oxaspiro[3.3]heptane-6-carbonitrile]	> 6.00
[2H]C([2H])([2H])C(C(=O)N1OCC[C@H]1c1ccc(F)cc1)(C([2H])([2H])[2H])C([2H])([2H])[2H] [Compound 173, 1-[(3S)-3-(4-fluorophenyl)-1,2-oxazolidin-2-yl]-2,2-bis(^2H3)methyl(^2H3) propan-1-one]	> 6.00
CC(C)(C)C(=O)N1OCC[C@H]1c1cncc(Cl)c1 [Compound 174, 1-[(3S)-3-(5-chloropyridin-3-yl)-1,2-oxazolidin-2-yl]-2,2-dimethylpropan-1-one]	> 6.00
CC(C)(C)C(=O)N1OCC[C@H]1c1ccnc(C(F)F)c1 [Compound 175, 1-[(3S)-3-[2-(difluoromethyl)pyridin-4-yl]-1,2-oxazolidin-2-yl]-2,2-dimethylpropan-1-one]	> 6.00
CC(C)(COC(F)(F)F)C(=O)N1OCC[C@H]1c1ccc(F)cc1 [Compound 176, 1-[(3S)-3-(4-fluorophenyl)-1,2-oxazolidin-2-yl]-2,2-dimethyl-3-(trifluoromethoxy) propan-1-one]	> 6.00
CC(C)(COC(F)(F)F)C(=O)N1OCC[C@H]1c1cncc(Cl)c1 [Compound 177, 1-[(3S)-3-(5-chloropyridin-3-yl)-1,2-oxazolidin-2-yl]-2,2-dimethyl-3-(trifluoromethoxy) propan-1-one]	> 6.00
CC(C)(Cn1cccn1)C(=O)N1OCC[C@H]1c1ccc(F)cc1 [Compound 178, 1-[(3S)-3-(4-fluorophenyl)-1,2-oxazolidin-2-yl]-2,2-dimethyl-3-(1H-pyrazol-1-yl)propan-1-one]	> 6.00
CC(C)(CC#N)C(=O)N1OCC[C@H]1c1ccc(C#N)cc1 [Compound 181, 4-[(3S)-2-(3-cyano-2,2-dimethylpropanoyl)-1,2-oxazolidin-3-yl]benzonitrile]	> 6.00
CC(C)(C#N)C(=O)N1OCC[C@H]1c1ccc(F)cc1 [Compound 182, 3-[(3S)-3-(4-fluorophenyl)-1,2-oxazolidin-2-yl]-2,2-dimethyl-3-oxopropanenitrile]	> 6.00
N#Cc1ccc([C@@H]2CCON2C(=O)C2(C(F)F)CC2)cc1 [Compound 187, 4-[(3S)-2-[1-(difluoromethyl)cyclo-propanecarbonyl]-1,2-oxazolidin-3-yl]benzonitrile]	> 6.00
CC(C)(C)C(=O)N1OCC[C@H]1c1cc[nH]n1 [Compound 190, 2,2-dimethyl-1-[(3S)-3-(1H-pyrazol-5-yl)-1,2-oxazolidin-2-yl]propan-1-one]	> 6.00
C[C@@]1(C(=O)N2OCC[C@H]2c2ccc(F)cc2)CCC(=O)N1 [Compound 191, (5S)-5-[(3S)-3-(4-fluorophenyl)-1,2-oxazolidine-2-carbonyl]-5-methylpyrrolidin-2-one]	> 6.00
CC(C)(C)C(=O)N1OCC[C@H]1c1cc(C#N)ccn1 [Compound 192, 2-[(3S)-2-(2,2-dimethylpropanoyl)-1,2-oxazolidin-3-yl]pyridine-4-carbonitrile]	> 6.00
CC(C)(C(=O)N1OCC[C@H]1c1ccc(F)cc1)C1CC1 [Compound 193, 2-cyclopropyl-1-[(3S)-3-(4-fluorophenyl)-1,2-oxazolidin-2-yl]-2-methylpropan-1-one]	> 6.00 and 8.30
CC(C)(C(=O)N1OCC[C@H]1c1ccc(F)cc1)S(C)(=O)=O [Compound 194, 1-[(3S)-3-(4-fluorophenyl)-1,2-oxazolidin-2-yl]-2-methanesulfonyl-2-methylpropan-1-one]	5.00 to 6.00
Cc1ncc([C@@H]2CCON2C(=O)C(C)(C)C(F)F)cc1F [Compound 195, 3,3-difluoro-1-[(3S)-3-(5-fluoro-6-methylpyridin-3-yl)-1,2-oxazolidin-2-yl]-2*2-dimethylpropan-1-one]	> 6.00 and 8.00

SMILES	pIC50
Cc1ncc([C@@H]2CCON2C(=O)C(C)(C)CC#N)cc1F [Compound 196, 4-[(3S)-3-(5-fluoro-6-methylpyridin-3-yl)-1,2-oxazolidin-2-yl]-3,3-dimethyl-4-oxobutanenitrile]	> 6.00 and 8.05
Cn1cc([C@@H]2CCON2C(=O)C(C)(C)C(F)F)cn1 [Compound 198, (S)-3,3-difluoro-2,2-dimethyl-1-(3-(1-methyl-1H-pyrazol-4-yl)isoxazolidin-2-yl)propan-1-one]	> 6.00 and 7.29
CC(C)(C(=O)N1OCC[C@H]1c1cncc(C#N)c1)C(F)F [Compound 200, (S)-5-(2-(3,3-difluoro-2,2-dimethylpropanoyl)isoxazolidin-3-yl)nicotinonitrile]	> 6.00 and 8.05
Cc1ccc([C@@H]2CCON2C(=O)C(C)(C)C(F)F)cn1 [Compound 202, 3,3-difluoro-2,2-dimethyl-1-[(3S)-3-(6-methylpyridin-3-yl)-1,2-oxazolidin-2-yl]propan-1-one]	> 6.00
CC(C)(C(=O)N1OCC[C@@H]1c1ccc(C#N)s1)C(F)F [Compound 203, 5-[(3R)-2-(3,3-difluoro-2,2-dimethylpropanoyl)-1,2-oxazolidin-3-yl]thiophene-2-carbonitrile]	> 6.00
CC(C)(C(=O)N1OCC[C@H]1c1ccc(C#N)s1)C(F)F [Compound 204, 5-[(3S)-2-(3,3-difluoro-2,2-dimethylpropanoyl)-1,2-oxazolidin-3-yl]thiophene-2-carbonitrile]	> 6.00
Cn1cc([C@@H]2CCON2C(=O)C(C)(C)C)cc1C#N [Compound 205, 4-[(3S)-2-(2,2-dimethylpropanoyl)-1,2-oxazolidin-3-yl]-1-methyl-1 h-pyrrole-2-carbonitrile]	> 6.00
Cc1ncc([C@@H]2CCON2C(=O)C(C)(C)C)cc1C#N [Compound 219]	> 6.00
Cc1ncc([C@@H]2CCON2C(=O)C(C)(C)C(F)F)cc1C#N [Compound 220, 5-[(3S)-2-(3,3-difluoro-2,2-dimethylpropanoyl)-1,2-oxazolidin-3-yl]-2-methylpyridine-3-carbonitrile]	> 6.00
CC(C)(C(=O)N1OCC[C@H]1c1ccc(C(F)F)nc1)C(F)F [Compound 221, 1-[(3S)-3-[6-(difluoromethyl)pyridin-3-yl]-1,2-oxazolidin-2-yl]-3,3-difluoro-2,2-dimethylpropan-1-one]	> 6.00 and 7.15
CC(C)(C)C(=O)N1OCC[C@H]1c1cc(Br)cc(C#N)c1 [Compound 222, 3-bromo-5-[(3S)-2-(2,2-dimethylpropanoyl)-1,2-oxazolidin-3-yl]benzonitrile]	> 6.00
CC(C)(C)C(=O)N1OCC[C@H]1c1ccc([N+](=O)[O-])nc1 [Compound 223, 2,2-dimethyl-1-[(3S)-3-(6-nitropyridin-3-yl)-1,2-oxazolidin-2-yl]propan-1-one]	> 6.00
CC(C)S(=O)(=O)N1OCC[C@H]1c1cncc(C#N)c1 [Compound 225, 5-[(3S)-2-(propane-2-sulfonyl)-1,2-oxazolidin-3-yl]pyridine-3-carbonitrile]	5.00 to 6.00
CC(C)(C(=O)N1OCC[C@H]1c1cc(F)cc(C#N)c1)C(F)F [Compound 226, 3-[(3S)-2-(3,3-difluoro-2,2-dimethylpropanoyl)-1,2-oxazolidin-3-yl]-5-fluorobenzonitrile]	> 6.00
CC(C)(C(=O)N1OCC[C@H]1c1ccc(C(F)F)c(C#N)c1)C(F)F [Compound 227, 5-[(3S)-2-(3,3-difluoro-2,2-dimethylpropanoyl)-1,2-oxazolidin-3-yl]-2-(difluoromethyl)benzonitrile]	> 6.00
CC(C)(CC#N)C(=O)N1OCC[C@H]1c1ccc(C(F)F)c(C#N)c1 [Compound 228, 5-[(3S)-2-(3-cyano-2,2-dimethylpropanoyl)-1,2-oxazolidin-3-yl]-2-(difluoromethyl)benzonitrile]	> 6.00
N#Cc1ccc([C@@H]2CCON2C(=O)C2(C(F)F)CCC2)cc1 [Compound 229, 4-[(3S)-2-[1-(difluoromethyl)cyclo-butanecarbonyl]-1,2-oxazolidin-3-yl]benzonitrile]	> 6.00
N#Cc1ccc([C@@H]2CCON2C(=O)C23C4C5C6C4C2C6C53)cc1 (stereo partly drawn) [Compound 238, 4-[(3S)-2-(cubane-1-carbonyl)-1,2-oxazolidin-3-yl]benzonitrile]	> 6.00
CC(C)(C(=O)N1OCC[C@H]1c1cccc(C#N)c1)C(F)F [Compound 239, 3-[(3S)-2-(3,3-difluoro-2,2-dimethylpropanoyl)-1,2-oxazolidin-3-yl]benzonitrile]	> 6.00
